Measurements taken from patent publication US20090247559A1 (Exelixis, Inc., priority 2007, published 2009).

Biological target: PIM (PIM-1, PIM-2, and/or PIM-3)
Assay: PIM-1, PIM-2 and PIM-3 inhibition, biochemical chemiluminescence assays (Kinase Glo, IC50 determination)
Details: Table 1 activity class; PIM refers to PIM-1, PIM-2, and/or PIM-3; read-out: PIM IC50 (Activity B)
Description: (§1) The IC50 evaluation of compounds against the PIM-1 oncogene was performed in a Chemiluminesence assay utilizing a Greiner 384-well white medium binding white plate format. […] Following an incubation period of 120 minutes at ambient temperature (24-27° C.), 10 μL of Kinase Glo (Promega) was added. The luminescence was measured following a Luminescence Protocol on a Victor plate reader.
as §1, with “PIM-2” for “PIM-1”, “format. […] The assay procedure involves compound dilution followed by addition of 3 nM PIM-2 to the designated well plates and subsequent pre-incubation of the compounds with the enzyme for 30 minutes at ambient temperature (24-27° C.).” for “format.”
as §1, with “PIM-3 Oncogene” for “PIM-1 oncogene”

Structure (SMILES)	IC50 [µM]
O=c1[nH]c(CNC2CCNCC2)nc2c1oc1ccc(Br)cc12 [Compound 8, 8-bromo-2-[(piperidin-4-ylamino)methyl][1]benzofuro[3,2-d]pyrimidin-4(3H)-one]	< 10
CN(C)CCCNC(=O)[C@@H]1CCCN1Cc1nc2c(oc3ccc(Br)cc32)c(=O)[nH]1 [Compound 20, 1-[(8-bromo-4-oxo-3,4-dihydro[1]benzofuro[3,2-d]pyrimidin-2-yl)methyl]-N-[3-(dimethylamino)propyl]prolinamide]	< 10
CN(C)c1cccc(NCc2nc3c(oc4ccc(Br)cc43)c(=O)[nH]2)c1 [Compound 76, 8-bromo-2-({[3-(dimethylamino)phenyl]amino}methyl)[1]benzofuro[3,2-d]pyrimidin-4(3H)-one]	< 10
CN(C)CCN1CCN(Cc2nc3c(oc4ccc(Br)cc43)c(=O)[nH]2)CC1 [Compound 81, 8-bromo-2-({4-[2-(dimethylamino)ethyl]piperazin-1-yl}methyl)[1]benzofuro[3,2-d]pyrimidin-4(3H)-one]	< 10
O=c1[nH]c(CN2CCN(CCN3CCOCC3)CC2)nc2c1oc1ccc(Br)cc12 [Compound 82, 8-bromo-2-{[4-(2-morpholin-4-ylethyl)piperazin-1-yl]methyl}[1]benzofuro[3,2-d]pyrimidin-4(3H)-one]	< 10
O=c1[nH]c(-c2ccc(Cl)cc2)nc2c1oc1ccc(Br)cc12 [Compound 94, 8-Bromo-2-(4-chlorophenyl)[1]benzofuro[3,2-d]pyrimidin-4(3H)-one]	< 10
O=c1[nH]c(-c2ccc(Br)cc2)nc2c1oc1ccc(Br)cc12 [Compound 95, 8-Bromo-2-(4-bromophenyl)[1]benzofuro[3,2-d]pyrimidin-4(3H)-one]	< 10
CN1CCN(C(=O)c2nc3c(oc4ccc(Br)cc43)c(=O)[nH]2)CC1 [Compound 106, 8-Bromo-2-[(4-methylpiperazin-1-yl)carbonyl][1]benzofuro[3,2-d]pyrimidin-4(3H)-one]	< 10
NC1C[C@H]2CC[C@@H](C1)N2Cc1nc2c(oc3ccc(Br)cc32)c(=O)[nH]1 (stereo partly drawn) [Compound 131, 2-{[(1R,5S)-3-Amino-8-azabicyclo[3.2.1]oct-8-yl]methyl}-8-bromo[1]benzofuro[3,2-d]pyrimidin-4(3H)-one]	< 10
CN1CCN(C(c2nc3c(oc4ccc(Br)cc43)c(=O)[nH]2)c2ccccc2Cl)CC1 (stereo not shown) [Compound 156, 8-Bromo-2-[(2-chlorophenyl)(4-methylpiperazin-1-yl)methyl][1]benzofuro[3,2-d]pyrimidin-4(3H)-one]	< 10
CN1CCN(C(c2ccccc2)c2nc3c(oc4ccc(Br)cc43)c(=O)[nH]2)CC1 (stereo not shown) [Compound 188, 8-bromo-2-[(4-methylpiperazin-1-yl)(phenyl)methyl][1]benzofuro[3,2-d]pyrimidin-4(3H)-one]	< 10
CN(C)CCNCc1nc2c(oc3ccc(Br)cc32)c(=O)[nH]1 [Compound 200, 8-bromo-2-({[2-(dimethylamino)ethyl]amino}methyl)[1]benzofuro[3,2-d]pyrimidin-4(3H)-one]	< 10
O=c1[nH]c(CN2CCC(N3CCCCC3)CC2)nc2c1oc1ccc(Br)cc12 [Compound 202, 2-(1,4′-bipiperidin-1′-ylmethyl)-8-bromo[1]benzofuro[3,2-d]pyrimidin-4(3H)-one]	< 10
O=c1[nH]c(CN2CCN(c3cccc(Cl)c3)CC2)nc2c1oc1ccc(Br)cc12 [Compound 278, 8-bromo-2-{[4-(3-chlorophenyl)piperazin-1-yl]methyl}[1]benzofuro[3,2-d]pyrimidin-4(3H)-one]	< 10
O=c1[nH]c(-c2cn3c(n2)CNCC3)nc2c1oc1ccc(Br)cc12 [Compound 301, 8-Bromo-2-(5,6,7,8-tetrahydroimidazo[1,2-a]pyrazin-2-yl)[1]benzofuro[3,2-d]pyrimidin-4(3H)-one]	< 10

Continued, values first:

IC50 [µM]	Structure (SMILES)
< 10	O=c1[nH]c(CNc2ccc(F)cc2)nc2c1oc1ccc(Br)cc12 [Compound 22, 8-bromo-2-{[(4-fluorophenyl)amino]methyl}[1]benzofuro[3,2-d]pyrimidin-4(3H)-one]
< 10	CCN(CC)CC(=O)N1CCN(Cc2nc3c(oc4ccc(Br)cc43)c(=O)[nH]2)CC1 [Compound 26, 8-bromo-2-{[4-(N,N-diethylglycyl)piperazin-1-yl]methyl}[1]benzofuro[3,2-d]pyrimidin-4(3H)-one]
< 10	COC(=O)c1ccc(-c2nc3c(oc4ccccc43)c(=O)[nH]2)cc1 [Compound 53, methyl 4-(4-oxo-3,4-dihydro[1]benzofuro[3,2-d]pyrimidin-2-yl)benzoate]
< 10	Cc1cc(NCC2CCOC2)ccc1-c1nc2c(oc3ccc(Br)cc32)c(=O)[nH]1 (stereo not shown) [Compound 61, 8-bromo-2-{2-methyl-4-[(tetrahydrofuran-3-ylmethyl)amino]phenyl}[1]benzofuro[3,2-d]pyrimidin-4(3H)-one]
< 10	CN1CCN(c2ccccc2CNCc2nc3c(oc4ccc(Br)cc43)c(=O)[nH]2)CC1 [Compound 74, 8-bromo-2-[({[2-(4-methylpiperazin-1-yl)phenyl]methyl}amino)methyl][1]benzofuro[3,2-d]pyrimidin-4(3H)-one]
< 10	CN1CCC(N2CCN(Cc3nc4c(oc5ccc(Br)cc54)c(=O)[nH]3)CC2)CC1 [Compound 84, 8-bromo-2-{[4-(1-methylpiperidin-4-yl)piperazin-1-yl]methyl}[1]benzofuro[3,2-d]pyrimidin-4(3H)-one]
< 10	CNC(=O)c1ccc2oc3c(=O)[nH]c(-c4ccccc4Cl)nc3c2c1 [Compound 97, 2-(2-chlorophenyl)-N-methyl-4-oxo-3,4-dihydrobenzofuro[3,2-d]pyrimidine-8-carboxamide]
< 10	O=C(COc1cccc(-c2nc3c(oc4ccc(Br)cc43)c(=O)[nH]2)c1)NCC1CC1 [Compound 98, 2-{[3-(8-bromo-4-oxo-3,4-dihydro[1]benzofuro[3,2-d]pyrimidin-2-yl)phenyl]oxy}-N-(cyclopropylmethyl)acetamide]
< 10	CN1CCN(C(Cc2ccccc2)c2nc3c(oc4ccc(Br)cc43)c(=O)[nH]2)CC1 (stereo not shown) [Compound 215, 8-bromo-2-[1-(4-methylpiperazin-1-yl)-2-phenylethyl][1]benzofuro[3,2-d]pyrimidin-4(3H)-one]
< 10	CC(C)COc1cnccc1-c1nc2c(oc3ccc(Br)cc32)c(=O)[nH]1 [Compound 219, 8-bromo-2-{3-[(2-methylpropyl)oxy]pyridin-4-yl}[1]benzofuro[3,2-d]pyrimidin-4(3H)-one]
< 10	CN1CCN(c2ccc(CNc3nc4c(oc5ccc(Br)cc54)c(=O)[nH]3)cc2)CC1 [Compound 225, 8-bromo-2-({[4-(4-methylpiperazin-1-yl)phenyl]methyl}amino)[1]benzofuro[3,2-d]pyrimidin-4(3H)-one]
< 10	C[C@@H]1CN(Cc2nc3c(oc4ccc(Br)cc43)c(=O)[nH]2)C[C@H](C)N1 [Compound 296, 8-bromo-2-{[(3R,5S)-3,5-dimethylpiperazin-1-yl]methyl}[1]benzofuro[3,2-d]pyrimidin-4(3H)-one]
< 10	C[C@@H]1CN(Cc2nc3c(oc4ccc(Br)cc43)c(=O)[nH]2)C[C@H](C)N1C [Compound 316, 8-bromo-2-{[(3R,5S)-3,4,5-trimethylpiperazin-1-yl]methyl}[1]benzofuro[3,2-d]pyrimidin-4(3H)-one]
